Measurements: patent publication US12358921B2, “Antiviral heterocyclic compounds” (priority 2022, dated 2025)

Legend:
hMPV A2 TN/94-49 = assay: HMPV antiviral assay Method 1 (LLC-MK2 cells, ATP-Lite); format: cell-based; conditions: hMPV A2 TN/94-49, LLC-MK2 cells
Description: In vitro HMPV antiviral activity was evaluated using the clinical isolate A2 strain TN 94-49 (obtained from Dr. John Williams, Vanderbilt University, Tennessee) and […] cells (ATCC #CCL-7), an immortalized kidney epithelial cell line from Macaca mulatta. Compounds were resuspended in dimethyl sulfoxide (DMSO) at 10 mM, serially diluted and added to a 384-well source plate. Subsequently, the compounds were diluted and transferred onto 384-well assay plates using the Echo-650 automated liquid handling system (Beckman Coulter, Indiana). The test compounds were assessed in duplicate at a top concentration of 2 μM followed by 2.5-fold serial dilutions to give a total of 10 concentration points. DMSO control wells were also included on the assay plates and were either infected or not, acting as positive and negative controls. A2 TN 94-49 virus infections were performed in-suspension with LLC-MK2 cells. The cells were washed twice with PBS and removed from the cell-culture flask with 0.25% trypsin-EDTA (Thermo Fisher Scientific, MA). The trypsin-EDTA was inactivated by resuspending in 2% fetal bovine serum (FBS) and OptiMEM (ThermoFisher Scientific, MA) containing 1% penicillin-streptomycin. Cells were pelleted by centrifuging for 5 minutes at 800 rpm, the supernatant was removed, and cells were re-suspended and washed in PBS plus 100 μg/mL CaCl2). This step was performed twice. Cells were then re-suspended in serum-free (SF)-OptiMEM containing 4 μg/mL TPCK-Trypsin (Sigma Aldrich, MO), 1% penicillin-streptomycin (ThermoFisher Scientific, MA) and 100 μg/mL CaCl2). Cells were counted and seeded at a density of 5,000 cells/well, 12.5 μL/well. Virus infections were done at a multiplicity of infection (MOI) of 0.005 with 12.5 μL added per well. Virus infections were performed in infection media which contained SF-OptiMEM, 100 μg/mL CaCl2) and 1% penicillin-streptomycin. HMPV viral stocks are suspended in infection media+5% glycerol, thus an equal volume of infection media+5% glycerol was added to uninfected wells to equalize the final % glycerol across all wells of the assay plate. The final concentration of TPCK-trypsin was 2 μg/mL. The assay plates were incubated at 37° C., 5% CO2 for 7 days. After 7 days incubation, 12.5 μL of ATP-Lite (PerkinElmer, MA) was added to each well and the raw luminescence values were determined using the Envision 2104 (Perkin Elmer, MA). The average of the raw luminescence values for the cells and virus only positive control wells was subtracted from all conditions tested and the percent cell health was determined by dividing these values by the average of the cells only negative control wells. EC50 values were then calculated by non-linear regression using a four-parameter curve logistic equation. The curve fit model employed was XLFit Dose Response One Site Model 200: y=(A+(B/(1+((x/C)^D)))), where A is the minimum y value, B is the maximum y value, C is the log EC50value, and D is the slope factor. Method 2: In Vitro HMPV Antiviral Activity was Evaluated Using the Clinical Isolate A2 Strain TN 94-49

[1] = system: HUMAN RSV-A (“LONG” STRAIN); assay: RSV-A assay (CPE, ATPlite) in Hep-2 cells; format: cell-based; conditions: human respiratory syncytial virus, 120 h, MOI 0.1, 5-day incubation
How it was run: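 Protection from RSV cytopathic effect read by ATP luminescence (ATPlite) after 5-day culture. Genotype A "Long" virus added at MOI 0.1 to Hep-2 monolayers at 8,000 cells/well, pre-dosed with duplicate 2-fold compound dilutions; controls include infected untreated and uninfected wells. EC50 values binned into ranges.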

| SMILES | EC50 (hMPV A2 TN/94-49) [nM] | EC50 [1] [nM] |
| --- | --- | --- |
| COc1cc(C(=O)NC[C@@](O)(c2ccccc2)c2cc3c(c(-c4ccc5c(c4Cl)OC(F)(F)O5)n2)OC[C@]3(C)C(N)=O)cc2cn(C(F)F)nc12 [Example 253] | < 500 | < 200 |
| [2H]C([2H])([2H])c1nc2c(OC)cc(C(=O)NC[C@@](O)(c3ccc(F)cc3)c3cc4c(c(-c5ccc6c(c5Cl)OC(F)(F)O6)n3)OC[C@]4(C)C(N)=O)cc2s1 [Example 27] | < 500 | < 200 |
| Cc1nc2ccc(C(=O)NC[C@@](O)(c3ccccc3)c3cc4c(c(-c5ccc(F)c(Cl)c5Cl)n3)OC[C@]4(C)C(N)=O)cc2o1 [Example 267] | < 500 | < 200 |
| COc1cc(C(=O)NC[C@](O)(c2cc3c(c(-c4cccc(S(F)(F)(F)(F)F)c4)n2)OC[C@]3(C)C(N)=O)C(F)(F)F)cc2cn(C3CC3)nc12 [Example 54] | > 500 | < 200 |
| [2H]C([2H])([2H])c1nc2c(OC)cc(C(=O)NC[C@@](O)(c3ccccc3)c3cc4c(c(-c5ccc(F)c(Cl)c5Cl)n3)OC[C@]4(C)C(N)=O)cc2s1 [Example 273] | < 500 | < 200 |
| [2H]C([2H])([2H])c1nc2c(OC)cc(C(=O)NC[C@@](O)(c3ccccc3)c3cc4c(c(-c5cc(Cl)c(F)cc5F)n3)OC[C@]4(C)C(N)=O)cc2s1 [Example 155] | < 500 | < 200 |
| COc1cc(C(=O)NC[C@@](O)(c2ccc(F)cc2)c2cc3c(c(-c4ccc(F)c(Cl)c4Cl)n2)OC[C@]3(C)C(N)=O)cc2cc(Cl)c(C)nc12 [Example 44] | < 500 | < 200 |
| COc1cc(C(=O)NC[C@](O)(c2cc3c(c(-c4ccc5ccsc5c4)n2)OC[C@]3(C)C(N)=O)C2CC2)cc2cn(C3CC3)nc12 [Example 48] | > 500 | < 200 |
| [2H]C([2H])([2H])c1nc2c(OC)cc(C(=O)NC[C@@](O)(c3ccc(OC)cc3)c3cc4c(c(-c5cc(Cl)c(F)cc5F)n3)OC[C@]4(C)C(N)=O)cc2s1 [Example 168] | < 500 | < 200 |
| CCNC(=O)[C@@]1(C)COc2c1cc([C@@](O)(CNC(=O)c1cc(OC)c3nn(C4CC4)cc3c1)c1ccccc1)nc2-c1cc(Cl)c(F)cc1F [Example 142] | < 500 | < 200 |
| COc1ccc([C@](O)(CNC(=O)c2cc(OC)c3nn(C(F)F)cc3c2)c2cc3c(c(-c4cc(Cl)c(F)cc4F)n2)OC[C@]3(C)C(N)=O)cc1 [Example 167] | < 500 | < 200 |
| COc1cc(C(=O)NC[C@@](O)(c2ccccc2)c2cc3c(c(-c4cccc(Cl)c4Cl)n2)OC[C@]3(C)C(N)=O)cc2cn(C(F)F)nc12 [Example 261] | < 500 | < 200 |
| [2H]C([2H])([2H])c1nc2c(OC)cc(C(=O)NC[C@@](O)(c3ccccc3)c3cc4c(c(-c5ccc6c(c5)OC(F)(F)O6)n3)OC[C@]4(C)C(N)=O)cc2s1 [Example 9] | < 500 | < 200 |
| COc1cc(C(=O)NC[C@](O)(c2cc3c(c(-c4cccc(SC(F)(F)F)c4)n2)OC[C@]3(C)C(N)=O)C2CC2)cc2cn(C3CC3)nc12 [Example 36] | > 500 | < 200 |
| [2H]C([2H])([2H])c1nc2ccc(C(=O)NC[C@@](O)(c3ccccc3)c3cc4c(c(-c5cc(Cl)c(F)cc5F)n3)OC[C@]4(C)C(N)=O)cc2o1 [Example 87] | < 500 | < 200 |
| COc1cc(C(=O)NC[C@@](O)(c2ccc(F)cc2)c2cc3c(c(-c4ccc5c(c4Cl)OC(F)(F)O5)n2)OC[C@]3(C)C(N)=O)cc2cc(C(F)(F)F)cnc12 [Example 26] | > 500 | < 200 |
| COc1cc(C(=O)NC[C@@](O)(c2ccccc2)c2cc3c(c(-c4cc(Cl)c(F)cc4F)n2)OC[C@]3(C)C(=O)NC2CC2)cc2cn(C3CC3)nc12 [Example 143] | < 500 | < 200 |

Results, then the compound that gave them:

| EC50 (hMPV A2 TN/94-49) [nM] | EC50 [1] [nM] | SMILES |
| --- | --- | --- |
| < 500 | < 200 | [2H]C([2H])([2H])c1nc2c(OC)cc(C(=O)NC[C@@](O)(c3ccsc3)c3cc4c(c(-c5cc(Cl)c(F)cc5F)n3)OC[C@]4(C)C(N)=O)cc2s1 [Example 176] |
| < 500 | < 200 | [2H]C([2H])([2H])c1nc2c(OC)cc(C(=O)NC[C@](O)(c3cc4c(c(-c5cc(Cl)c(F)cc5F)n3)OC[C@]4(C)C(N)=O)C3CC3)cc2s1 [Example 10] |
| < 500 | < 200 | C[C@]1(C(N)=O)COc2c1cc([C@@](O)(CNC(=O)c1cc(OC(F)F)c3nn(C4CC4)cc3c1)C1CC1)nc2-c1ccc(F)c(F)c1Cl [Example 39] |
| < 500 | < 200 | COc1cc(C(=O)NC[C@@](O)(c2ccsc2)c2cc3c(c(-c4cc(Cl)c(F)cc4F)n2)OC[C@]3(C)C(N)=O)cc2cn(C(F)F)nc12 [Example 174] |
| < 500 | < 200 | [2H]c1c([2H])c([2H])c([C@](O)(CNC(=O)c2cc(OC)c3nn(C4CC4)cc3c2)c2cc3c(c(-c4cc(Cl)c(F)cc4F)n2)OC[C@]3(C)C(N)=O)c([2H])c1[2H] [Example 169] |
| < 500 | < 200 | COc1cccc([C@](O)(CNC(=O)c2cc(OC)c3nc(C)c(Cl)cc3c2)c2cc3c(c(-c4cc(Cl)c(F)cc4F)n2)OC[C@]3(C)C(N)=O)c1 [Example 164] |
| < 500 | < 200 | COc1cc(C(=O)NC[C@](O)(c2cc3c(c(-c4ccc(Cl)c(Cl)c4Cl)n2)OC[C@]3(C)C(N)=O)C2CC2)cc2cn(C3CC3)nc12 [Example 60] |
| < 500 | < 200 | C[C@]1(C(N)=O)COc2c1cc([C@@](O)(CNC(=O)c1cc(OC(F)F)c3nn(C4CC4)cc3c1)C1CC1)nc2-c1ccc(F)c(Cl)c1F [Example 40] |
| < 500 | < 200 | [2H]c1nc2c(OC)cc(C(=O)NC[C@](O)(c3cc4c(c(-c5cc(F)c(F)cc5F)n3)OC[C@]4(C)C(N)=O)C3CC3)cc2cc1Br [Example 30] |
| < 500 | < 200 | C[C@]1(C(N)=O)COc2c1cc([C@@](O)(CNC(=O)c1cc(OC(F)F)c3nn(C4CC4)cc3c1)C1CC1)nc2-c1cc(F)c(F)cc1F [Example 6] |
| < 500 | < 200 | COc1cc(C(=O)NC[C@](O)(c2cc3c(c(-c4cc(Cl)c(F)cc4F)n2)OC[C@]3(C)C(N)=O)c2cc(C)cs2)cc2cn(C3CC3)nc12 [Example 467] |
| < 500 | < 200 | COc1cc(C(=O)NC[C@@](O)(c2ccccc2)c2cc3c(c(-c4cc(C(F)F)c(F)cc4F)n2)OC[C@]3(C)C(N)=O)cc2cn(C3CC3)nc12 [Example 288] |
| < 500 | < 200 | COc1cc(C(=O)NC[C@](O)(c2cc3c(c(-c4cc(C(F)(F)F)ccc4C)n2)OC[C@]3(C)C(N)=O)C2CC2)cc2cn(C3CC3)nc12 [Example 53] |
| > 500 | < 200 | COc1cc(C(=O)NC[C@@](O)(c2cc3c(c(-c4ccc(F)cc4O)n2)OC[C@]3(C)C(N)=O)C2CC2)cc2cn(C3CC3)nc12 [Example 64] |
| > 500 | < 200 | COc1cc(C(=O)NC[C@](O)(c2cc3c(c(-c4ccc(F)cc4O)n2)OC[C@]3(C)C(N)=O)C2CC2)cc2cn(C3CC3)nc12 [Example 63] |
| < 500 | < 200 | [2H]C([2H])([2H])c1cc2cc(C(=O)NC[C@](O)(c3cc4c(c(-c5cc(Cl)c(F)cc5F)n3)OC[C@]4(C)C(N)=O)C3CC3)cc(OC)c2nc1C([2H])([2H])[2H] [Example 29] |
